Source: patent publication US20230002774A1, “METHODS AND COMPOSTIONS FOR INHIBITING CORONAVIRAL REPLICATION” (California Institute of Technology, priority 2021, published 2023)
Where two headings read alike, the source gives them in different places.

How the values were obtained:
[1] = system: HCoV-229E; test: Stage-limited inhibition assay, viral RNA at 8 hpi, HCoV-229E in H1299 cells; type: cell-based; set-up: dose or concentration left out as unconfirmed
Method: (§1) Total cell RNA was extracted using the MagMAX mirVana Total RNA Isolation Kit (Thermo Fisher Scientific) with KingFisher systems (Thermo Fisher Scientific). RNA was quantified using NanoDrop Lite Spectrophotometer (Thermo Fisher Scientific). Total RNA ([…]) was reverse transcribed using the High-Capacity cDNA Reverse Transcription Kit (Thermo Fisher Scientific). cDNA samples were used for quantitative TagMan PCR using TaqMan™ Universal Master Mix II, no UNG (Thermo Fisher Scientific), in an QuantStudio™ 5 System (Thermo Fisher Scientific). FAM-MGB-labeled TaqMan probes for the indicated genes were purchased from Thermo Fisher Scientific. The resulting data were analyzed using Excel and GraphPad Prism 8.
(§2) H1299 cells were treated with 0.1% DMSO, […] CB-5083, or […] of NMS-873 from 30 min prior to virus infection until 8 h post-infection. […] Cells were collected at 8 hpi for viral RNA determination.

[2] = system: HCoV-OC43; conditions: HCoV-OC43, CB-5083 0.5 mM, 8 hpi
Method: Cells were fixed with cold 4% paraformaldehyde for 15 min followed by permeabilization/blocking with 10% FBS and 0.2% Triton X-100 for another 1 h. Cells were stained with mouse anti-dsRNA antibody clone rJ2 (1:50) (Sigma-Aldrich, MABE1134) followed by labeling with anti-mouse mouse secondary antibody conjugated to Alexa-488 (Thermo Fisher Scientific). Nuclei were stained with Hoechst. Fluorescent images were acquired using Thermo Scientific™ Invitrogen™ EVOS™ FL Auto 2 Imaging System.
Cells were treated with the indicated concentration of CB-5083 and infected with virus. After 1 h of infection, cells were washed three times with serum-free media and then returned to media containing 2% FBS and the same concentration of CB-5083.

[3] = system: HCoV-OC43; type: cell-based; set-up: HCoV-OC43 viral RNA level reduced: dose or concentration left out as unconfirmed; conditions: CB-5083 until 8 hpi, harvested 24 hpi
[4] = system: H1299 cells; conditions: cell viability at 72 hpi, normalized to mock-infected DMSO-treated control
Method: (§3) Cells were seeded using 2×10^5 cells per well in 96-well plates and incubated overnight at 37° C. Cells were treated with the indicated concentration of CB-5083 and infected with virus or mock infected. After 1 h of infection, cells were washed three times with serum-free media and then cultured with media containing 10% FBS and the same concentration of CB-5083. Cultured media was replaced with fresh media at 8 hpi. At 72 hpi, cell viability was measured by CellTiter-Glo® Luminescent Cell Viability Assay (Promega).

[5] = system: HCoV-229E
[6] = system: HCoV-infected H1299 cells; conditions: CB-5083 0.5 mM until 8 hpi, viability at 72 hpi
Method: as §3

[7] = system: HCoV-OC43; test: Stage-limited inhibition assay, viral RNA at 8 hpi, HCoV-OC43 in H1299 cells; type: cell-based; conditions: for viral RNA levels vs vehicle control, inhibitors throughout the experiment (group 2): 1 mM CB-5083 or 2 mM NMS-873, 30 min before infection to 8 hpi, harvested 8 hpi; for viral RNA levels, early treatment (group 3: pretreatment to 0 hpi): 1 mM CB-5083 or 2 mM NMS-873, harvested 8 hpi
Method: as §1, §2

[8] = system: HCoV-OC43; test: Titer of secreted virus in culture media by TCID50 in H1299 cells, HCoV-OC43; type: cell-based
[9] = system: HCoV-229E; test: Titer of secreted virus in culture media by TCID50 in H1299 cells, HCoV-229E; type: cell-based
[10] = system: HCoV-229E; type: cell-based

Compound | viral RNA levels vs vehicle control, inhibitors throughout the experiment (group 2) [1] | viral RNA levels, early treatment (group 3: pretreatment to 0 hpi) [1] | dsRNA signals (immunostaining) [2] | HCoV-OC43 viral RNA level reduced [3] | HCoV-OC43 viral RNA level, effect of different doses [3] | toxicity of the tested concentrations to H1299 cells [4] | dsRNA signals (immunostaining) [5] | cell viability increased compared to HCoV-infected and DMSO-treated control [6] [%] | viral RNA levels vs vehicle control, inhibitors throughout the experiment (group 2) [7] | viral RNA levels, early treatment (group 3: pretreatment to 0 hpi) [7] | viral titer of secreted HCoV-OC43 decreased [8] [%] | viral titer of secreted HCoV-229E decreased [9] [%] | HCoV-229E viral RNA level reduced [10] | HCoV-229E viral RNA level, effect of different doses [10] | viral RNA levels vs vehicle control, inhibitors throughout the experiment (group 2) ([1]; HCoV-229E, 30 min before infection to 8 hpi, harvested 8 hpi) | viral RNA levels, early treatment (group 3: pretreatment to 0 hpi) ([1]; HCoV-229E, harvested 8 hpi)
Cc1cc2c(C(N)=O)cccc2n1-c1nc2c(c(NCc3ccccc3)n1)COCC2 [CB-5083] | Extensive reduction | only minor or no effects | lower dsRNA signals | about 40% | reduced by CB-5083 in a dose-dependent manner | non-toxic | lower dsRNA signals | ~29 | Extensive reduction | only minor or no effects | ~85 | ~81 | about 47% | reduced by CB-5083 in a dose-dependent manner |  | 
Cc1cc(OCc2nnc(SC3CCCC3)n2-c2cccnc2)ccc1-c1ccc(S(C)(=O)=O)cc1 [NMS-873, 3-[3-cyclopentylsulfanyl-5-[[3-methyl-4-(4-methylsulfonylphenyl)phenoxy]methyl]-1,2,4-triazol-4-yl]pyridine] |  |  |  |  |  |  |  |  | Extensive reduction | only minor or no effects |  |  |  |  | Extensive reduction | only minor or no effects
